Test results as given in ChEMBL document CHEMBL1149774, “Synthesis of N-(5,7-diamino-3-phenyl-quinoxalin-2-yl)-3,4,5-substituted anilines and N-[4[(5,7-diamino-3-phenylquinoxalin-2-yl)amino]benzoyl]-l-glutamic acid diethyl ester: evaluation of in vitro anti-cancer and anti-folate activities” (Eur J Med Chem, 2008).
Activity calls are given as the source filed them. The rule behind the calls is not given here.

Experiments:
[1] = target: Thymidylate synthase (Escherichia coli) (UniProt C3SWJ7); assay: Inhibition of Escherichia coli thymidylate synthase at 10 uM
Sequence of Thymidylate synthase (Escherichia coli) (C3SWJ7 1-264): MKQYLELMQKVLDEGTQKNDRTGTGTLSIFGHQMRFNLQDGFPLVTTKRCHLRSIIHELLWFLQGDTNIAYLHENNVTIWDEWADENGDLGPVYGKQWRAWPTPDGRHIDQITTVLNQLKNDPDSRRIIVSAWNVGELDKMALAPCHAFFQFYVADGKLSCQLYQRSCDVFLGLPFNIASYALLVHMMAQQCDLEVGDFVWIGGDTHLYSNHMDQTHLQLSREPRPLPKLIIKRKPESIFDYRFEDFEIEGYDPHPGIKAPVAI

[2] = target: T1, Thymidylate synthase (Lactobacillus casei, UniProt P00469)
T1 sequence (P00469 whole entry): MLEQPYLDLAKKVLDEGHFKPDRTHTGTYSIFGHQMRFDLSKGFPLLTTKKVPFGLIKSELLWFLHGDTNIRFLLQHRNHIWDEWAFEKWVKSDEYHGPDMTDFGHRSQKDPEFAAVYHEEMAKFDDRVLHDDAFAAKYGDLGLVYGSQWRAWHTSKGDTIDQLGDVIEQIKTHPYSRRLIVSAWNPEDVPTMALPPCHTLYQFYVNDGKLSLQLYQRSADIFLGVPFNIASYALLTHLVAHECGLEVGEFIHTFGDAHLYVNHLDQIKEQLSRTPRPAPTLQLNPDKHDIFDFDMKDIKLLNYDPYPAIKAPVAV
Description: Inhibition of Lactobacillus casei thymidylate synthase

[3] = tested on: CCRF-CEM; assay: Growth inhibition of human CCRF-CEM cells after 48 hrs by SRB staining method; format: functional
[4] = target: Thymidylate synthase (Escherichia coli, UniProt C3SWJ7)
Sequence of Thymidylate synthase (Escherichia coli, UniProt C3SWJ7) (C3SWJ7 whole entry): as the sequence (C3SWJ7 1-264) above

Row | Structure (SMILES) | Activity [1] | Ki [2] | Ki [4] | GI50 [3]
1 | CN(Cc1cnc2nc(N)nc(N)c2n1)c1ccc(C(=O)N[C@@H](CCC(=O)O)C(=O)O)cc1 [METHOTREXATE] |  |  |  | 0.0398 µM
2 | COc1ccc(Nc2nc3cc([N+](=O)[O-])cc([N+](=O)[O-])c3nc2-c2ccccc2)cc1OC |  | 24 µM | 1 µM | 
3 | COc1cc(Nc2nc3cc([N+](=O)[O-])cc([N+](=O)[O-])c3nc2-c2ccccc2)cc(OC)c1 | inactive | 6 µM |  | 

Continued, in another order:

Row | Activity [1] | Ki [2] | Ki [4] | Structure (SMILES) | GI50 [3]
4 | inactive | 8 µM |  | COc1ccc(Nc2nc3cc([N+](=O)[O-])cc([N+](=O)[O-])c3nc2-c2ccccc2)cc1 | 
5 | inactive | 11 µM |  | COc1cc(Nc2nc3cc([N+](=O)[O-])cc([N+](=O)[O-])c3nc2-c2ccccc2)cc(OC)c1OC | 
6 |  | 36 µM | 3 µM | CCOC(=O)CCC(NC(=O)c1ccc(Nc2nc3cc([N+](=O)[O-])cc([N+](=O)[O-])c3nc2-c2ccccc2)cc1)C(=O)OCC (stereo unspecified) | 
